Data taken from the CheMixHub ionic liquid set.
± gives the uncertainty stated by the source.

Experiment: xn = mol fraction of the nth substance listed
Details: 100 kPa

CCCC[N+]1(C)CCCC1.N#C[C-](C#N)C#N + O
Details | electrical conductivity [S/m] | viscosity [mPa·s]
288.15 K, x2 = 0.0718 | 0.723 ± 0.015 | 40.02 ± 0.89
288.15 K, x2 = 0.1358 | 0.799 ± 0.016 | 35.64 ± 0.78
288.15 K, x2 = 0.1942 | 0.872 ± 0.018 | 32.15 ± 0.7
288.15 K, x2 = 0.2886 | 0.993 ± 0.02 | 27.21 ± 0.58
288.15 K, x2 = 0.3569 | 1.09 ± 0.022 | 24.1 ± 0.51
288.15 K, x2 = 0.431 | 1.21 ± 0.024 | 21.17 ± 0.45
288.15 K, x2 = 0.5238 | 1.38 ± 0.028 | 17.74 ± 0.37
288.15 K, x2 = 0.6162 | 1.55 ± 0.031 | 15 ± 0.31
288.15 K, x2 = 0.7143 | 1.8 ± 0.036 | 12.05 ± 0.25
288.15 K, x2 = 0.7708 | 1.9 ± 0.038 | 10.98 ± 0.22
293.15 K, x2 = 0.0718 | 0.882 ± 0.018 | 32.78 ± 0.73
293.15 K, x2 = 0.1358 | 0.957 ± 0.019 | 29.3 ± 0.65
293.15 K, x2 = 0.1942 | 1.04 ± 0.021 | 26.51 ± 0.58
293.15 K, x2 = 0.2886 | 1.18 ± 0.024 | 22.51 ± 0.48
293.15 K, x2 = 0.3569 | 1.3 ± 0.026 | 20 ± 0.43
293.15 K, x2 = 0.431 | 1.44 ± 0.029 | 17.55 ± 0.37
293.15 K, x2 = 0.5238 | 1.63 ± 0.033 | 14.75 ± 0.31
293.15 K, x2 = 0.6162 | 1.86 ± 0.037 | 12.41 ± 0.26
293.15 K, x2 = 0.7143 | 2.14 ± 0.043 | 9.96 ± 0.2
293.15 K, x2 = 0.7708 | 2.26 ± 0.045 | 9.06 ± 0.19
298.15 K, x2 = 0.0718 | 1.05 ± 0.021 | 27.26 ± 0.61
298.15 K, x2 = 0.1358 | 1.13 ± 0.023 | 24.45 ± 0.54
298.15 K, x2 = 0.1942 | 1.23 ± 0.025 | 22.18 ± 0.48
298.15 K, x2 = 0.2886 | 1.39 ± 0.028 | 18.9 ± 0.41
298.15 K, x2 = 0.3569 | 1.52 ± 0.031 | 16.78 ± 0.36
298.15 K, x2 = 0.431 | 1.69 ± 0.034 | 14.76 ± 0.31
298.15 K, x2 = 0.5238 | 1.92 ± 0.038 | 12.43 ± 0.26
298.15 K, x2 = 0.6162 | 2.18 ± 0.044 | 10.42 ± 0.22
298.15 K, x2 = 0.7143 | 2.52 ± 0.051 | 8.36 ± 0.17
298.15 K, x2 = 0.7708 | 2.67 ± 0.053 | 7.58 ± 0.16
303.15 K, x2 = 0.0718 | 1.22 ± 0.025 | 22.88 ± 0.51
303.15 K, x2 = 0.1358 | 1.32 ± 0.027 | 20.68 ± 0.46
303.15 K, x2 = 0.1942 | 1.43 ± 0.029 | 18.8 ± 0.41
303.15 K, x2 = 0.2886 | 1.61 ± 0.032 | 16.06 ± 0.35
303.15 K, x2 = 0.3569 | 1.76 ± 0.035 | 14.28 ± 0.3
303.15 K, x2 = 0.431 | 1.96 ± 0.039 | 12.58 ± 0.27
303.15 K, x2 = 0.5238 | 2.22 ± 0.045 | 10.62 ± 0.22
303.15 K, x2 = 0.6162 | 2.52 ± 0.051 | 8.87 ± 0.18
303.15 K, x2 = 0.7143 | 2.93 ± 0.059 | 7.1 ± 0.15
303.15 K, x2 = 0.7708 | 3.09 ± 0.062 | 6.47 ± 0.13
308.15 K, x2 = 0.0718 | 1.42 ± 0.028 | 19.58 ± 0.44
308.15 K, x2 = 0.1358 | 1.53 ± 0.031 | 17.69 ± 0.39
308.15 K, x2 = 0.1942 | 1.65 ± 0.033 | 16.13 ± 0.35
308.15 K, x2 = 0.2886 | 1.85 ± 0.037 | 13.82 ± 0.3
308.15 K, x2 = 0.3569 | 2.03 ± 0.041 | 12.3 ± 0.26
308.15 K, x2 = 0.431 | 2.22 ± 0.045 | 10.84 ± 0.23
308.15 K, x2 = 0.5238 | 2.56 ± 0.051 | 9.18 ± 0.19
308.15 K, x2 = 0.6162 | 2.9 ± 0.058 | 7.65 ± 0.16
308.15 K, x2 = 0.7143 | 3.35 ± 0.067 | 6.11 ± 0.13
308.15 K, x2 = 0.7708 | 3.54 ± 0.071 | 5.56 ± 0.11
313.15 K, x2 = 0.0718 | 1.62 ± 0.032 | 16.87 ± 0.38
313.15 K, x2 = 0.1358 | 1.74 ± 0.035 | 15.26 ± 0.34
313.15 K, x2 = 0.1942 | 1.87 ± 0.038 | 13.96 ± 0.3
313.15 K, x2 = 0.2886 | 2.11 ± 0.042 | 12 ± 0.26
313.15 K, x2 = 0.3569 | 2.3 ± 0.046 | 10.7 ± 0.23
313.15 K, x2 = 0.431 | 2.54 ± 0.051 | 9.44 ± 0.2
313.15 K, x2 = 0.5238 | 2.89 ± 0.058 | 8.02 ± 0.17
313.15 K, x2 = 0.6162 | 3.28 ± 0.066 | 6.68 ± 0.14
313.15 K, x2 = 0.7143 | 3.81 ± 0.076 | 5.31 ± 0.11
313.15 K, x2 = 0.7708 | 4.02 ± 0.081 | 4.83 ± 0.1
318.15 K, x2 = 0.0718 | 1.84 ± 0.037 | 14.68 ± 0.33
318.15 K, x2 = 0.1358 | 1.97 ± 0.04 | 13.34 ± 0.29
318.15 K, x2 = 0.1942 | 2.12 ± 0.042 | 12.27 ± 0.27
318.15 K, x2 = 0.2886 | 2.37 ± 0.048 | 10.52 ± 0.23
318.15 K, x2 = 0.3569 | 2.6 ± 0.052 | 9.39 ± 0.2
318.15 K, x2 = 0.431 | 2.87 ± 0.057 | 8.29 ± 0.18
318.15 K, x2 = 0.5238 | 3.25 ± 0.065 | 7.06 ± 0.15
318.15 K, x2 = 0.6162 | 3.7 ± 0.074 | 5.83 ± 0.12
318.15 K, x2 = 0.7143 | 4.28 ± 0.086 | 4.66 ± 0.1
318.15 K, x2 = 0.7708 | 4.53 ± 0.091 | 4.24 ± 0.09
323.15 K, x2 = 0.0718 | 2.07 ± 0.041 | 12.88 ± 0.29
323.15 K, x2 = 0.1358 | 2.22 ± 0.044 | 11.74 ± 0.26
323.15 K, x2 = 0.1942 | 2.37 ± 0.048 | 10.81 ± 0.24
323.15 K, x2 = 0.2886 | 2.66 ± 0.053 | 9.3 ± 0.2
323.15 K, x2 = 0.3569 | 2.9 ± 0.058 | 8.31 ± 0.18
323.15 K, x2 = 0.431 | 3.19 ± 0.064 | 7.34 ± 0.16
323.15 K, x2 = 0.5238 | 3.63 ± 0.073 | 6.28 ± 0.13
323.15 K, x2 = 0.6162 | 4.12 ± 0.083 | 5.16 ± 0.11
323.15 K, x2 = 0.7143 | 4.78 ± 0.096 | 4.13 ± 0.09
323.15 K, x2 = 0.7708 | 5.06 ± 0.1 | 3.75 ± 0.08
328.15 K, x2 = 0.0718 | 2.31 ± 0.046 | 11.39 ± 0.25
328.15 K, x2 = 0.1358 | 2.48 ± 0.05 | 10.41 ± 0.23
328.15 K, x2 = 0.1942 | 2.65 ± 0.053 | 9.6 ± 0.21
328.15 K, x2 = 0.2886 | 2.96 ± 0.059 | 8.28 ± 0.18
328.15 K, x2 = 0.3569 | 3.21 ± 0.064 | 7.41 ± 0.16
328.15 K, x2 = 0.431 | 3.54 ± 0.071 | 6.56 ± 0.14
328.15 K, x2 = 0.5238 | 4.02 ± 0.08 | 5.63 ± 0.12
328.15 K, x2 = 0.6162 | 4.57 ± 0.091 | 4.61 ± 0.1
328.15 K, x2 = 0.7143 | 5.29 ± 0.11 | 3.68 ± 0.08
328.15 K, x2 = 0.7708 | 5.61 ± 0.11 | 3.35 ± 0.07
333.15 K, x2 = 0.0718 | 2.58 ± 0.052 | 10.14 ± 0.23
333.15 K, x2 = 0.1358 | 2.75 ± 0.055 | 9.29 ± 0.2
333.15 K, x2 = 0.1942 | 2.93 ± 0.059 | 8.58 ± 0.19
333.15 K, x2 = 0.2886 | 3.27 ± 0.065 | 7.42 ± 0.16
333.15 K, x2 = 0.3569 | 3.54 ± 0.071 | 6.65 ± 0.14
333.15 K, x2 = 0.431 | 3.91 ± 0.078 | 5.89 ± 0.12
333.15 K, x2 = 0.5238 | 4.43 ± 0.089 | 5.07 ± 0.11
333.15 K, x2 = 0.6162 | 5.01 ± 0.1 | 4.15 ± 0.09
333.15 K, x2 = 0.7143 | 5.83 ± 0.12 | 3.3 ± 0.07
333.15 K, x2 = 0.7708 | 6.17 ± 0.12 | 3.01 ± 0.06

CCCCn1cc[n+](C)c1C.C[C@@H](O)[C@H](N)C(=O)[O-] + O
Details | viscosity [mPa·s]
288.15 K, x1 = 0.4927 | 331 ± 69
293.15 K, x1 = 0.2985 | 102 ± 21
293.15 K, x1 = 0.7003 | 447 ± 94
298.15 K, x1 = 0.7003 | 307 ± 64
298.15 K, x1 = 0.8001 | 402 ± 84
308.15 K, x1 = 0.1919 | 24.8 ± 5
308.15 K, x1 = 0.4004 | 63 ± 13
308.15 K, x1 = 0.599 | 122 ± 25
308.15 K, x1 = 0.8001 | 199 ± 41
313.15 K, x1 = 0.2985 | 26.1 ± 5.2
313.15 K, x1 = 0.599 | 78 ± 16
318.15 K, x1 = 0.2985 | 21.5 ± 4.3
318.15 K, x1 = 0.4004 | 33.1 ± 6.6
318.15 K, x1 = 0.4927 | 45.9 ± 9.2
318.15 K, x1 = 0.7003 | 77 ± 16
318.15 K, x1 = 0.8001 | 92 ± 18

CC[n+]1ccn(C)c1.N#C[S-] + O
Details | viscosity [mPa·s]
288.15 K, x2 = 0.9443 | 1.96 ± 0.02
293.15 K, x2 = 0.1006 | 22.55 ± 0.44
293.15 K, x2 = 0.7981 | 4.08 ± 0.06
293.15 K, x2 = 0.9105 | 2.27 ± 0.03
303.15 K, x2 = 0.1948 | 13.75 ± 0.27
303.15 K, x2 = 0.4011 | 9.55 ± 0.17
303.15 K, x2 = 0.6887 | 4.72 ± 0.07
308.15 K, x2 = 0 | 16.39 ± 0.35
308.15 K, x2 = 0.1948 | 12.02 ± 0.23
308.15 K, x2 = 0.6043 | 5.31 ± 0.08
308.15 K, x2 = 0.6887 | 4.19 ± 0.07
313.15 K, x2 = 0.1006 | 12.15 ± 0.24
313.15 K, x2 = 0.9105 | 1.44 ± 0.02
313.15 K, x2 = 0.9506 | 1.07 ± 0.01
318.15 K, x2 = 0 | 12.43 ± 0.26
318.15 K, x2 = 0.1948 | 9.38 ± 0.18
